Consider two compounds from patent US20110020269A1, “METHODS AND COMPOSITIONS FOR MODIFYING T CELL IMMUNE RESPONSES AND INFLAMMATION” (Beth Israel Deaconess Medical Center, Inc., priority 2007, published 2011).

For one series, the system named is new onset T1DM NOD mice. The series can be described thus: Restoration of euglycemia in new onset diabetic NOD mice. In kind it is in vivo, mouse. To be noted: NOD-sp hosts; treatment 28 days. How it is done:
We tested the efficacy of a 14- or 28-day course of Power Mix (RPM+IL-2/Fc+mIL-15/Fc) in new onset (>10 days) T1DM NOD mice whose repeated blood glucose levels ranged from 300 to 450 mg/dl. All non-treated diabetic NOD mice remained hyperglycemic without spontaneous remissions (Table 1, group A) and most died within 7 weeks despite insulin treatment (data not shown). In contrast, euglycemia was achieved within 5-7 weeks and maintained throughout a follow up period of over 300 days in 55 of 60 diabetic NOD mice treated with the RPM+IL-2/Fc+mIL-15/Fc regimen (Table 1 groups B and C). By comparison, remissions were less frequent (Table 1, Groups D-F) and delayed if elements of the treatment mix were eliminated.
To determine whether the presence of the T cell regulatory-enriched CD25+ T cell population is crucial to the beneficial therapeutic effects of Power Mix, prior to administration, we treated new onset diabetic NOD mice with an anti-CD25 mAb regimen known to delete CD4+CD25+ T cells (Zheng et al., Adv. Exp. Med. Biol., 520:87-95, 2003; Sanchez-Fueyo et al., Nat. Immunol., 4:1093-1101, 2003). Seven days after the initiation of anti-CD25 mAb treatment, these CD25+ T cell depleted mice received regimen treatment for 28 days (Table 1, Group G). […]
Blood glucose levels of NOD mice were monitored twice weekly with the Accu-Check blood glucose monitor system (Roche, Indianapolis, Ind.). […]

For series [1] the following is noted: subcutaneous injection of 25 mg twice a week; cited from earlier work.

Consider `CO[C@H]1C[C@@H]2CC[C@@H](C)[C@@](O)(O2)C(=O)C(=O)N2CCCC[C@H]2C(=O)O[C@H]([C@H](C)C[C@@H]2CC[C@@H](O)[C@H](OC)C2)CC(=O)[C@H](C)/C=C(\C)[C@@H](O)[C@@H](OC)C(=O)[C@H](C)C[C@H](C)/C=C/C=C/C=C/1C` [RPM, rapamycin], for which the “Restored to Normoglycemia (#/total treated)” value in the series with new onset T1DM NOD mice is recorded as 5/19.
Consider Etanercept, for which the “Time to peak blood levels (average)” value in series [1] was 72 h.
